According to ChEMBL document CHEMBL1201862, “PubChem BioAssay data set” (2004):
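All cell lines were grown in 96-well plates and treated with compound for 48 hours. At the GI50, growth is halved.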 Activity calls are given as the source filed them. Rule as the data show it: active = GI50 up to about 1.1 µM and inactive = higher.

Key:
Assay in all cases: growth of human tumour cells (NCI), 48 h
[1] = tested on: T47D
[2] = tested on: DU-145
[3] = tested on: RPMI-8226
[4] = tested on: NCI/ADR-RES
[5] = tested on: MOLT-4
[6] = tested on: SF-539
[7] = tested on: SK-MEL-5
[8] = tested on: UO-31
[9] = tested on: EKVX
[10] = tested on: CAKI-1
[11] = tested on: SW-620
[12] = tested on: OVCAR-3
[13] = tested on: SF-295
[14] = tested on: SK-OV-3
[15] = tested on: MDA-MB-435
[16] = tested on: NCI-H460
[17] = tested on: IGROV-1
[18] = tested on: UACC-257
[19] = tested on: RXF 393
[20] = tested on: OVCAR-8
[21] = tested on: TK-10
[22] = tested on: UACC-62
[23] = tested on: PC-3
[24] = tested on: ACHN
[25] = tested on: BT-549
[26] = tested on: MDA-MB-231
[27] = tested on: SK-MEL-28
[28] = tested on: HOP-92
[29] = tested on: SR
[30] = tested on: HCT-116
[31] = tested on: SNB-75
[32] = tested on: MCF7
[33] = tested on: M14
[34] = tested on: HCT-15
[35] = tested on: K562
[36] = tested on: MDA-N
[37] = tested on: COLO 205
[38] = tested on: OVCAR-5
[39] = tested on: HT-29
[40] = tested on: SK-MEL-2
[41] = tested on: SNB-19
[42] = tested on: KM12
[43] = tested on: A549
[44] = tested on: OVCAR-4
[45] = tested on: HL-60
[46] = tested on: SN12C
[47] = tested on: CCRF-CEM
[48] = tested on: LOX IMVI
[49] = tested on: HOP-62
[50] = tested on: 786-0
[51] = tested on: U-251
[52] = tested on: NCI-H23
[53] = tested on: Malme-3M
[54] = tested on: A498
[55] = tested on: NCI-H226
[56] = tested on: SF-268
[57] = tested on: NCI-H522
[58] = tested on: Hs-578T
[59] = tested on: HCC 2998

O=c1oc2c(Cl)cc(Cl)cc2cc1C1=CSC2=NCCN12
GI50 [1]: 36.5 µM (inactive)
GI50 [2]: 40.1 µM (inactive)
GI50 [3]: 58.9 µM (inactive)
GI50 [4]: 79.6 µM (inactive)
GI50 [5]: 39.3 µM (inactive)
GI50 [6]: > 100 µM (inactive)
GI50 [7]: 27.4 µM (inactive)
GI50 [8]: 29.3 µM (inactive)
GI50 [9]: 41.9 µM (inactive)
GI50 [10]: 52.2 µM (inactive)
GI50 [11]: 50.5 µM (inactive)
GI50 [12]: 26.7 µM (inactive)
GI50 [13]: 40 µM (inactive)
GI50 [14]: > 100 µM (inactive)
GI50 [15]: 32 µM (inactive)
GI50 [16]: 57.5 µM (inactive)
GI50 [17]: 48.8 µM (inactive)
GI50 [18]: > 100 µM (inactive)
GI50 [19]: 34.2 µM (inactive)
GI50 [20]: 63.7 µM (inactive)
GI50 [21]: 73.1 µM (inactive)
GI50 [22]: 51.9 µM (inactive)
GI50 [23]: 42.1 µM (inactive)
GI50 [24]: 49.7 µM (inactive)
GI50 [25]: 26 µM (inactive)
GI50 [26]: 28.9 µM (inactive)
GI50 [27]: 47.1 µM (inactive)
GI50 [28]: 28.6 µM (inactive)
GI50 [29]: 40.6 µM (inactive)
GI50 [30]: 31 µM (inactive)
GI50 [31]: 65.8 µM (inactive)
GI50 [32]: 28.8 µM (inactive)
GI50 [33]: 55.2 µM (inactive)
GI50 [34]: 44.7 µM
GI50 [35]: 34.4 µM (inactive)
GI50 [36]: 36.2 µM (inactive)
GI50 [37]: > 100 µM (inactive)
GI50 [38]: > 100 µM (inactive)
GI50 [39]: 61.2 µM (inactive)
GI50 [40]: > 100 µM (inactive)
GI50 [41]: 44.8 µM (inactive)
GI50 [42]: 57.8 µM (inactive)
GI50 [43]: 64.3 µM (inactive)
GI50 [44]: 39.7 µM (inactive)
GI50 [45]: 30.3 µM (inactive)
GI50 [46]: 51.8 µM (inactive)
GI50 [47]: 31.3 µM (inactive)
GI50 [48]: 59.8 µM (inactive)
GI50 [49]: 38.8 µM (inactive)
GI50 [50]: 40.8 µM (inactive)
GI50 [51]: 44.7 µM (inactive)
GI50 [52]: 46 µM (inactive)

CN(C)c1ccc(/C=N/c2nc3cc4sc(/N=C/c5ccc(N(C)C)cc5)nc4cc3s2)cc1
GI50 [1]: 42.5 µM (inactive)
GI50 [2]: 8.22 µM (inactive)
GI50 [3]: 19.1 µM (inactive)
GI50 [4]: > 100 µM (inactive)
GI50 [5]: 12.9 µM (inactive)
GI50 [6]: > 100 µM (inactive)
GI50 [7]: > 100 µM (inactive)
GI50 [53]: > 100 µM (inactive)
GI50 [8]: 92.7 µM (inactive)
GI50 [9]: > 100 µM (inactive)
GI50 [10]: 21.3 µM (inactive)
GI50 [11]: 33.9 µM (inactive)
GI50 [12]: 36.9 µM (inactive)
GI50 [13]: > 100 µM (inactive)
GI50 [14]: 41.8 µM (inactive)
GI50 [15]: 33.7 µM (inactive)
GI50 [54]: 26.7 µM (inactive)
GI50 [16]: 5.4 µM (inactive)
GI50 [17]: > 100 µM (inactive)
GI50 [55]: 33.3 µM (inactive)
GI50 [18]: > 100 µM (inactive)
GI50 [20]: 76 µM (inactive)
GI50 [21]: 80.7 µM (inactive)
GI50 [22]: > 100 µM (inactive)
GI50 [23]: > 100 µM (inactive)
GI50 [24]: 66.1 µM (inactive)
GI50 [25]: 71 µM (inactive)
GI50 [26]: > 100 µM (inactive)
GI50 [27]: > 100 µM (inactive)
GI50 [28]: > 100 µM (inactive)
GI50 [56]: 45 µM (inactive)
GI50 [29]: 29.4 µM (inactive)
GI50 [30]: 30.5 µM (inactive)
GI50 [57]: 9.98 µM (inactive)
GI50 [31]: 63.2 µM (inactive)
GI50 [32]: 12.6 µM (inactive)
GI50 [33]: > 100 µM (inactive)
GI50 [58]: 18.1 µM (inactive)
GI50 [34]: > 100 µM
GI50 [35]: 70.1 µM (inactive)
GI50 [37]: 4.75 µM (inactive)
GI50 [38]: > 100 µM (inactive)
GI50 [39]: 34.1 µM (inactive)
GI50 [40]: > 100 µM (inactive)
GI50 [41]: 77.6 µM (inactive)
GI50 [42]: 46.7 µM (inactive)
GI50 [43]: 12.8 µM (inactive)
GI50 [44]: > 100 µM (inactive)
GI50 [45]: 16.9 µM (inactive)
GI50 [46]: 83.9 µM (inactive)
GI50 [47]: 6.3 µM (inactive)
GI50 [48]: 47.8 µM (inactive)
GI50 [49]: 55.7 µM (inactive)
GI50 [50]: 49.7 µM (inactive)
GI50 [51]: 50.5 µM (inactive)
GI50 [52]: 28.5 µM (inactive)

FC(F)(F)c1ccccc1N1CCN(c2nc(-c3cccs3)nc3ccc(Br)cc23)CC1
GI50 [1]: 2.37 µM (inactive)
GI50 [2]: 63.4 µM (inactive)
GI50 [3]: 11.2 µM (inactive)
GI50 [4]: 41.8 µM (inactive)
GI50 [5]: 44.5 µM (inactive)
GI50 [6]: 97.3 µM (inactive)
GI50 [7]: 14.6 µM (inactive)
GI50 [53]: 24 µM (inactive)
GI50 [8]: 47.8 µM (inactive)
GI50 [9]: 24.4 µM (inactive)
GI50 [10]: 21.6 µM (inactive)
GI50 [11]: 38.6 µM (inactive)
GI50 [12]: 10.9 µM (inactive)
GI50 [13]: 30.3 µM (inactive)
GI50 [14]: 57.3 µM (inactive)
GI50 [15]: 23.9 µM (inactive)
GI50 [54]: 71.3 µM (inactive)
GI50 [16]: 27.7 µM (inactive)
GI50 [17]: 11.6 µM (inactive)
GI50 [55]: 30.8 µM (inactive)
GI50 [18]: 37.6 µM (inactive)
GI50 [20]: 66.2 µM (inactive)
GI50 [21]: 15.8 µM (inactive)
GI50 [59]: 4.58 µM (inactive)
GI50 [22]: 23 µM (inactive)
GI50 [23]: 11.7 µM (inactive)
GI50 [24]: 36.6 µM (inactive)
GI50 [25]: 50 µM (inactive)
GI50 [26]: 21 µM (inactive)
GI50 [27]: 35.8 µM (inactive)
GI50 [28]: < 0.01 µM (active)
GI50 [56]: 48.8 µM (inactive)
GI50 [29]: 31.6 µM (inactive)
GI50 [30]: 33.2 µM (inactive)
GI50 [57]: 35 µM (inactive)
GI50 [31]: 24.9 µM (inactive)
GI50 [32]: 1.06 µM (active)
GI50 [33]: 38.7 µM (inactive)
GI50 [58]: 36.5 µM (inactive)
GI50 [34]: 7.46 µM
GI50 [35]: 63.1 µM (inactive)
GI50 [37]: 23.4 µM (inactive)
GI50 [38]: 27.6 µM (inactive)
GI50 [39]: 29.5 µM (inactive)
GI50 [40]: 24.9 µM (inactive)
GI50 [41]: 50.7 µM (inactive)
GI50 [42]: 13.4 µM (inactive)
GI50 [43]: 33.8 µM (inactive)
GI50 [44]: 5.16 µM (inactive)
GI50 [45]: 36.4 µM (inactive)
GI50 [46]: 45.8 µM (inactive)
GI50 [47]: 0.581 µM (active)
GI50 [48]: 34.7 µM (inactive)
GI50 [49]: 50.4 µM (inactive)
GI50 [50]: 38.2 µM (inactive)
GI50 [51]: 44.4 µM (inactive)
GI50 [52]: 34.4 µM (inactive)
